PubChem BioAssay AID200 (DTP/NCI, 2004)
Values joined by “and” are separate entries in the source; they are usually repeats but may differ in a detail not shown here. Identical values can stand only once. Toxic doses and inconclusive results are not listed. Where a SMILES comes first, the peptide text is derived from it. [ ]: non-standard residue; d: D form. The star is where a group is joined. Cbz = O=C(OCc1ccccc1)*; Nva = CCC[CH](N)C(=O)O; For = O=C*

Tested on: B6C3F1 mice, B16 melanoma ip, median survival T/C
Test: NCI In Vivo Anticancer Drug Screen. Data for tumor model B16 Melanoma (intraperitoneal) in B6C3F1 mice
Conditions: endpoint: median survival time, higher = longer survival
Protocol: The antitumor activity of compounds was measured in mice bearing transplantable tumors. Survival or tumor size were measured and the results are expressed as the measurement made in the treated group (T) divided by the measurement made in the vehicle treated control group (C). The tumor model used in this assay is B16 Melanoma (intraperitoneal) in B6C3F1 mice

[1] = dose: 50.0 mg/kg/injection, schedule: Q01DX009 (ip), vehicle: saline with Tween-80
[2] = dose: 100.0 mg/kg/injection, schedule: Q01DX009 (ip), vehicle: saline with Tween-80
[3] = dose: 12.5 mg/kg/injection, schedule: Q01DX009 (ip), vehicle: saline with Tween-80
[4] = dose: 25.0 mg/kg/injection, schedule: Q01DX009 (ip), vehicle: saline with Tween-80
[5] = dose: 200.0 mg/kg/injection, schedule: Q01DX009 (ip), vehicle: saline with Tween-80
[6] = dose: 12.5 mg/kg/injection, schedule: Q01DX009 (ip), vehicle: Klucel (hydroxypropylcellulose) (HPC)
[7] = dose: 25.0 mg/kg/injection, schedule: Q01DX009 (ip), vehicle: Klucel (hydroxypropylcellulose) (HPC)
[8] = dose: 50.0 mg/kg/injection, schedule: Q01DX009 (ip), vehicle: Klucel (hydroxypropylcellulose) (HPC)
[9] = dose: 100.0 mg/kg/injection, schedule: Q01DX009 (ip), vehicle: Klucel (hydroxypropylcellulose) (HPC)
[10] = dose: 200.0 mg/kg/injection, schedule: Q01DX009 (ip), vehicle: Klucel (hydroxypropylcellulose) (HPC)
[11] = dose: 400.0 mg/kg/injection, schedule: Q01DX009 (ip), vehicle: Klucel (hydroxypropylcellulose) (HPC)

Compound: Cc1ccc([NH-])c([NH-])c1.[Cl][Pt+2][Cl]
- T/C (dose: 0.63 mg/kg/injection, schedule: Q01DX009 (ip), vehicle: saline with Tween-80): 114 % of control
- T/C (dose: 5.0 mg/kg/injection, schedule: Q01DX009 (ip), vehicle: saline with Tween-80): 157 % of control
- T/C (dose: 10.0 mg/kg/injection, schedule: Q01DX009 (ip), vehicle: saline with Tween-80): 160 % of control

Compound: CCSc1ncnc2c1ncn2C1OC(CO)C(O)C1O (configuration not stated)
- T/C [1]: 93 % of control
- T/C [2]: 95 % of control

Compound: COc1cccc2c1C(=O)c1c(O)c3c(c(O)c1C2=O)C[C@@](O)(C(C)=O)C[C@@H]3OC1CC(N(CCO)Cc2ccccc2)C(O)C(C)O1 (some centres not stated)
- T/C (dose: 12.5 mg/kg/injection, schedule: Q01DX001 (ip), vehicle: water): 120 % of control
- T/C (dose: 25.0 mg/kg/injection, schedule: Q01DX001 (ip), vehicle: water): 116 % of control

Compound: O=C1OCC2C(=O)OCC12 (configuration not stated)
- T/C [3]: 99 % of control
- T/C [4]: 99 % of control
- T/C [1]: 102 % of control
- T/C [2]: 101 % of control
- T/C [5]: 106 % of control

Compound: O=C(c1cccnc1)c1cc(-c2ccccn2)c(=O)n2ccccc12
- T/C [4]: 96 % of control
- T/C [1]: 98 % of control
- T/C [2]: 89 % of control

Compound: NS(=O)(=O)c1cc2c(cc1Cl)NC=NS2(=O)=O
- T/C (dose: 37.5 mg/kg/injection, schedule: Q01DX009 (ip), vehicle: Klucel (hydroxypropylcellulose) (HPC)): 94 % of control
- T/C (dose: 75.0 mg/kg/injection, schedule: Q01DX009 (ip), vehicle: Klucel (hydroxypropylcellulose) (HPC)): 90 % of control
- T/C (dose: 150.0 mg/kg/injection, schedule: Q01DX009 (ip), vehicle: Klucel (hydroxypropylcellulose) (HPC)): 95 % of control
- T/C (dose: 300.0 mg/kg/injection, schedule: Q01DX009 (ip), vehicle: Klucel (hydroxypropylcellulose) (HPC)): 88 % of control

Compound: COC(=O)NC1C(C)OC(OC2C/C=C(/C)C3C=CC4C(OC5CC(OC6CC(O)C(OC7CC(O)C(OC)C(C)O7)C(C)O6)C(O)C(C)O5)C(C)CC(C)C4C3(C)/C(O)=C3\C(=O)OC4(CC(C)C(CO)=CC4/C=C\2C)C3=O)CC1(C)[N+](=O)[O-] (configuration not stated)
- T/C [6]: 100 % of control and 104 % of control
- T/C [7]: 110 % of control and 106 % of control
- T/C [8]: 121 % of control

Compound: Cc1cc(NCCCCCCNc2cc(C)nc3cc(N(C)C)ccc23)c2ccc(N(C)C)cc2n1
- T/C (dose: 3.13 mg/kg/injection, schedule: Q01DX009 (ip), vehicle: distilled water + Tween-80 + alcohol): 100 % of control
- T/C (dose: 6.25 mg/kg/injection, schedule: Q01DX009 (ip), vehicle: distilled water + Tween-80 + alcohol): 112 % of control
- T/C (dose: 12.5 mg/kg/injection, schedule: Q01DX009 (ip), vehicle: distilled water + Tween-80 + alcohol): 112 % of control and 122 % of control

Compound: CC12CCC3C(CCC4CC(OC(=O)Cc5ccc(N(CCCl)CCCl)cc5)CCC43C)C1CCC(=O)N2 (configuration not stated)
- T/C (dose: 1.5 mg/kg/injection, schedule: Q01DX009 (ip), vehicle: saline with Tween-80): 113 % of control
- T/C (dose: 3.0 mg/kg/injection, schedule: Q01DX009 (ip), vehicle: saline with Tween-80): 106 % of control
- T/C (dose: 12.0 mg/kg/injection, schedule: Q01DX009 (ip), vehicle: saline with Tween-80): 167 % of control

Compound: O=S(=O)(c1cccc(N=C=S)c1)c1cccc(N=C=S)c1
- T/C (dose: 6.25 mg/kg/injection, schedule: Q01DX009 (ip), vehicle: Klucel (hydroxypropylcellulose) (HPC)): 109 % of control
- T/C [6]: 94 % of control

Compound: CCCCC/C(C=C(C#N)C#N)=C/c1ccccc1
- T/C [4]: 111 % of control
- T/C [1]: 106 % of control
- T/C [2]: 123 % of control

Compound: O=C(Nc1cc(Cl)ccc1C(=O)O)c1cccc(C[n+]2ccccc2)c1
- T/C [4]: 101 % of control
- T/C [1]: 94 % of control
- T/C [2]: 94 % of control

Compound: C1OCN2CSCC12 (configuration not stated)
- T/C [3]: 106 % of control
- T/C [4]: 94 % of control and 99 % of control
- T/C [1]: 92 % of control and 99 % of control
- T/C [2]: 108 % of control and 109 % of control
- T/C [5]: 109 % of control and 90 % of control

Compound: O=C(NC(Cc1cnc[nH]1)C(=O)NC(Cc1ccc(O)cc1)C(=O)O)OCc1ccccc1 (stereo not drawn) (Cbz-His-Tyr-OH; configuration not given here)
- T/C [9]: 102 % of control
- T/C [10]: 103 % of control
- T/C [11]: 110 % of control

Compound: O=CN(SSN(C=O)C1CCCCC1)C1CCCCC1
- T/C [3]: 90 % of control
- T/C [4]: 106 % of control
- T/C [1]: 101 % of control
- T/C [2]: 89 % of control
- T/C [5]: 97 % of control

Compound: CC(C)(C)OC(=O)NC(CC(=O)OCc1ccccc1)C(=O)ON1C(=O)CCC1=O (configuration not stated)
- T/C [7]: 93 % of control
- T/C [8]: 91 % of control
- T/C [9]: 95 % of control

Compound: CSCCC(NC=O)C(=O)NC(C(=O)O)C(C)C (stereo not drawn) (For-Met-Val-OH; configuration not given here)
- T/C [7]: 101 % of control
- T/C [8]: 101 % of control
- T/C [9]: 107 % of control
- T/C [10]: 105 % of control
- T/C [11]: 98 % of control

Compound: COc1cccc2c1C(=O)c1c(O)c3c(c(O)c1C2=O)CC(O)(/C(C)=N/NC(=O)CCC(=O)N/N=C(\C)C1(O)Cc2c(O)c4c(c(O)c2C(OC2CC(N)C(O)C(C)O2)C1)C(=O)c1c(OC)cccc1C4=O)CC3OC1CC(N)C(O)C(C)O1 (configuration not stated)
- T/C (dose: 0.75 mg/kg/injection, schedule: Q01DX009 (ip), vehicle: water): 171 % of control
- T/C (dose: 1.5 mg/kg/injection, schedule: Q01DX009 (ip), vehicle: water): 171 % of control and 195 % of control
- T/C (dose: 3.0 mg/kg/injection, schedule: Q01DX009 (ip), vehicle: water): 202 % of control and 242 % of control
- T/C (dose: 6.0 mg/kg/injection, schedule: Q01DX009 (ip), vehicle: water): 250 % of control and 256 % of control
- T/C (dose: 12.0 mg/kg/injection, schedule: Q01DX009 (ip), vehicle: water): 320 % of control

Compound: O=C(NC1CCCCC1)OCc1c(COC(=O)NC2CCCCC2)c(-c2ccc(Cl)c(Cl)c2)n2c1CCC2
- T/C [3]: 190 % of control
- T/C [4]: 162 % of control and 222 % of control
- T/C [1]: 199 % of control and 235 % of control
- T/C [2]: 203 % of control and 316 % of control
- T/C [5]: 181 % of control and 214 % of control
- T/C (dose: 400.0 mg/kg/injection, schedule: Q01DX009 (ip), vehicle: saline with Tween-80): 112 % of control

Compound: C1CCN(c2c3c(nc4nnnn24)CCC3)CC1
- T/C [1]: 91 % of control
- T/C [2]: 104 % of control
- T/C [5]: 92 % of control

Compound: C=Cc1cnc([N+](=O)[O-])n1C
- T/C [6]: 99 % of control and 106 % of control
- T/C [7]: 103 % of control and 107 % of control
- T/C [8]: 100 % of control and 105 % of control
- T/C [9]: 109 % of control and 106 % of control
- T/C [10]: 110 % of control and 100 % of control

Compound: c1cn[nH]c1
- T/C (dose: 12.5 mg/kg/injection, schedule: Q01DX009 (ip), vehicle: saline): 94 % of control
- T/C (dose: 25.0 mg/kg/injection, schedule: Q01DX009 (ip), vehicle: saline): 118 % of control
- T/C (dose: 50.0 mg/kg/injection, schedule: Q01DX009 (ip), vehicle: saline): 118 % of control
- T/C (dose: 100.0 mg/kg/injection, schedule: Q01DX009 (ip), vehicle: saline): 106 % of control

Compound: CN(C)N=Nc1ccc(C(N)=O)cc1
- T/C (dose: 4.5 mg/kg/injection, schedule: Q01DX009 (ip), vehicle: saline with Tween-80): 110 % of control
- T/C (dose: 7.5 mg/kg/injection, schedule: Q01DX009 (ip), vehicle: saline with Tween-80): 114 % of control
- T/C (dose: 8.0 mg/kg/injection, schedule: Q01DX009 (ip), vehicle: saline with Tween-80): 107 % of control
- T/C [3]: 119 % of control and 120 % of control
- T/C (dose: 13.0 mg/kg/injection, schedule: Q01DX009 (ip), vehicle: saline with Tween-80): 101 % of control
- T/C (dose: 20.83 mg/kg/injection, schedule: Q01DX009 (ip), vehicle: saline with Tween-80): 114 % of control and 288 % of control
- T/C (dose: 21.0 mg/kg/injection, schedule: Q01DX009 (ip), vehicle: saline with Tween-80): 118 % of control
- T/C (dose: 34.72 mg/kg/injection, schedule: Q01DX009 (ip), vehicle: saline with Tween-80): 110 % of control and 115 % of control
- T/C (dose: 35.0 mg/kg/injection, schedule: Q01DX009 (ip), vehicle: saline with Tween-80): 111 % of control
- T/C (dose: 57.86 mg/kg/injection, schedule: Q01DX009 (ip), vehicle: saline with Tween-80): 124 % of control
- T/C (dose: 58.0 mg/kg/injection, schedule: Q01DX009 (ip), vehicle: saline with Tween-80): 118 % of control
- T/C (dose: 96.0 mg/kg/injection, schedule: Q01DX009 (ip), vehicle: saline with Tween-80): 117 % of control

Compound: CCCC(NC(=O)OCc1ccccc1)C(=O)NC(C(=O)O)C(C)CC (configuration not stated) (Cbz-[Nva]-Ile-OH; configuration not given here)
- T/C [9]: 101 % of control
- T/C [10]: 109 % of control

Compound: COC1=CC(=O)C(OC)=C(OC)C1=O
- T/C (dose: 3.12 mg/kg/injection, schedule: Q01DX009 (ip), vehicle: saline with Tween-80): 97 % of control
- T/C (dose: 6.25 mg/kg/injection, schedule: Q01DX009 (ip), vehicle: saline with Tween-80): 92 % of control
- T/C [3]: 99 % of control
